From US20110268699A1, “METHODS FOR TREATING MULTIPLE SCLEROSIS USING TETRACYCLIC PYRAZINOINDOLES” (BIOVISTA, INC., priority 2008, published 2011)
Read-outs that look alike come from different tables or passages of the source.

Columns and labels:
[1] = steady-state, trough sample (pre-dose), on average; cited from earlier work
[2] = system: MOG-induced EAE in female C57BL/6J mice; assay type: in vivo, mouse
Method: Acute EAE Murine Model. […] The MOG murine model consists of a sensitization period, induced by the single subcutaneous (SC) injection of MOG emulsified in Complete Freund's Adjuvant (CFA) on study days 0 and 6, followed by IP supplemental immunostimulation with Pertussis Toxin (PT) carried out once at the time of EAE induction and once again 48 hours later.
Briefly, the study is performed in female C57BL/6J mice (Harlan Laboratories Israel, Ltd.) as young adults, 8-9 weeks of age at study initiation. animals are acclimatized to laboratory conditions at least 5 days. During acclimation and throughout the entire study duration, animals are housed in groups of 10 mice maximum in polypropylene cages, which are fitted with solid bottoms and filled with wood shavings as bedding material. Animals are provided ad libitum a commercial rodent diet and free access to drinking water, supplied to each cage via polyethylene bottles with stainless steel sipper tubes. Water is monitored periodically. Automatically controlled environmental conditions are set to maintain temperature at 20-24° C. with a relative humidity (RH) of 30-70%, a 12:12 hour light: dark cycle and 15-30 air changes/hr in the study room. Temperature and RH are monitored daily. The light cycle is monitored by the control clock. Weight variation of animals at the time of treatment initiation should not exceed ±20% of the mean weight. At the end of the study, surviving animals are euthanized by CO2 asphyxiation.
Antigen. […] This concentration is appropriate for the selected dose and dose volume of 200 μg MOG in 100 μL PBS.
MOG/CFA Emulsion. Prior to each inoculation carried out on study days 0 and 6, 100 μl of MOG solution (200 μg) is emulsified with 100 μl of CFA suspension (300 μg heat killed Mycobacterium Tuberculosis H37 Ra). […]
Initially, all animals are examined for signs of any neurological responses and symptoms prior to EAE induction (study day 0) and are examined on a daily basis throughout the 35-day observation period. EAE reactions are scored and recorded according to a 0-15 scale Clinical signs Scoring Methods. […]

[3] = system: MOG-induced EAE in female C57BL/6J mice; test: Histological analysis of spinal cord (H&E) of EAE mice: severity score and white matter damage; assay type: in vivo, mouse
Text: EXAMPLE. Histological Analysis of mice treated with pirlindole (BVA-201). Briefly, all samples are longitudinal sections of the vertebral column and spinal cord stained with hematoxylin and eosin (H&E). Sample A is the cranial part of the vertebral column and sample B is the caudal part. The modifiers F-focal, MF-multifocal, and D-diffuse are used to describe the distribution of inflammatory cellular infiltration. Diffuse is used when the lesion is continuous (at least on one side) and affects the entire SC. In some cases the lesion affects the entire SC (100%) but its distribution is multifocal because it is not contiguous i.e. there are small unaffected segments on one side, which are affected on the contralateral side. Histology analysis refers to 2 parameters: (a) Severity Score which is referring mainly but not limited to infiltration on inflammatory cells; and (b) White Matter Damage (WMD). Codes: Dist—distribution; GM—gray matter; IC—inflammatory cells; ND—not done; SC—spinal cord; Sev—severity; WM—white matter; WMD—white matter damage; WNL—within normal limits. Severity scores 0—WNL, 1—minimal, 2—mild, 3—moderate, 4—severe. Half grades are also used. Severity refers to the amount of inflammatory infiltration and WMD. If there is a discrepancy in the grade of these 2 changes, then this is noted. The extent of WMD is indicated in percentage referring to the amount of affected spinal cord tissue in the sample. In many cases the damage affected one side (dorsal or ventral) of the SC only. In some cases, when the plane of section is more lateral the WMD affects both sides. The available SC sample is considered 100%. Thus, if in a 5 cm long SC, there are changes in a 0.5 cm long segment, then this was noted as 10% irrespective of whether the damage affected one side or both. Although not reflected in the percentage, the extent of the lesion is taken into consideration in evaluation of the severity. WMD describes a set of changes including vacuolation, gliosis, and presence of myelin debris. […]

Clc1ccc2c(c1)N=C(N1CCNCC1)c1ccccc1N2 [Norclozapine]
Metabolite concentration as share of the clozapine concentration in plasma [1]: ~70%

Cc1ccc2c(c1)c1c3n2CCNC3CCC1 (stereo not shown) [Pirlindole, 2,3,3a,4,5,6-hexahydro-8-methyl-1H-pyrazino[3,2,1-j,k]carbazole]
Activity on EAE clinical score compared to the vehicle-only treatment group (A) ([2]; group C, 1.0 mg/kg IP once daily, at the end of the study): not statistically significant
Activity on EAE clinical score compared to the vehicle-only treatment group (A) ([2]; group C, 1.0 mg/kg IP once daily, intermediate time points on days 30, 31, and 32, p<0.05): statistically significant
Activity on EAE clinical score compared to the vehicle-only treatment group (A) ([2]; group E, 10 mg/kg IP once daily from day 0, p<0.01, starting at day 15 and continuing throughout the study (day 23, p<0.05), FIG. 1): statistically significant
Demyelination / myelin repair compared to the vehicle-only treatment group ([3]; BVA-201 treatment group, general statement): one or more of (a) less demyelination, (b) improved myelin repair, and/or (c) remyelination
Histology mean % of white matter damage (WMD) ([3]; group F, 30 mg/kg IP, FIG. 5): significant protective effect
Histology mean group severity score (inflammatory infiltration) versus vehicle ([3]; groups C (1 mg/kg) and F (30 mg/kg) IP, FIG. 3): No difference
